This experiment deals with T1, Human autotaxin enzyme (Homo sapiens, UniProt Q13822).
T1 construct: purchased R&D System
Nature of the experiment: Evaluation of autotaxin inhibitor, 18:0 Lyso PC / choline assay (Test Example 2). Type of experiment: biochemical. As to conditions: human autotaxin enzyme, 18:0 Lyso PC substrate, choline assay, room temperature 2 hours; read-out: Inhibitor activity (IC50). Summed up: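 Human autotaxin in 100 mM Tris-HCl pH 7.5, 150 mM NaCl, 5 mM MgCl2, 0.05% Triton X-100 reacted with 18:0 Lyso PC (200 μM stock) and test compound 2 h at room temperature. Released choline quantified via choline oxidase/peroxidase resorufin fluorescence (ex 531/em 598 nm, 20 min); inhibition vs no-compound and no-enzyme controls, concentration-response curve.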

pIC50: −log10 of the molar value.

Turning to `CCCCCc1nc(-c2ccc(Cl)cc2)cc(=O)n1CC(=O)NCCCc1ccccc1` [Compound I-0102], the negative logarithm of the IC50 (pIC50) is 6.00 to 7.00.
With `CCNC(=O)N1CCC(NC(=O)c2cccc(Cn3cnc(-c4ccc(Cl)cc4NC(=O)C(C)(C)C)cc3=O)c2)CC1` [Compound I-0500] the figure was 7.00 to 8.00.
Then `CC(C)(O)CN1CCN(C(=O)Cn2c(CCCC(F)(F)F)nc(-c3ccc(Cl)cc3)cc2=O)CC1` [Compound I-0148], with 6.00 to 7.00.
Then `CN(CCO)C(=O)Cn1c(CCCC(F)(F)F)nc(-c2ccc(C(F)(F)F)cc2)cc1=O` [Compound I-0305], with 7.00 to 8.00.
As for `COC(=O)Nc1cc(Cl)ccc1-c1cc(=O)n(CC(=O)NC2(C(=N)NO)CC2)c(C)n1` [Compound I-0440], the pIC50 was 7.00 to 8.00.
Then `CCCCCc1nc(-c2ccc(Cl)cc2)cc(=O)n1CC(=O)Nc1ncc(C#N)s1` [Compound I-0083], with no more than 6.00.
With `Cc1nc(-c2ccc(C#N)cc2NC(=O)C2CC2)cc(=O)n1CC(=O)O` [Compound I-0258] the figure was no more than 6.00.
On to `CCCCCNc1nc(-c2ccc(C(F)(F)F)cc2)cc(=O)n1Cc1cccc(C(=O)OC(C)(C)C)c1` [Compound I-0011], for which the pIC50 was no more than 6.00.
Then `O=C(NC(CO)CO)c1cccc(Cn2c(CCCC(F)(F)F)nc(-c3ccc(Cl)cc3)cc2=O)c1` [Compound I-0165], with 6.00 to 7.00.
With `CCCCCc1nc(-c2ccc(Cl)cc2)[nH]c(=O)c1Cc1cccc(C(=O)O)c1` [Compound I-0003], the pIC50 is 6.00 to 7.00.
Then `CN(C)C(=O)c1cccc(Cn2c(CCCC(F)(F)F)nc(-c3ccc(Cl)cc3)cc2=O)c1` [Compound I-0181], with 7.00 to 8.00; and `O=C(Cn1c(CCCC(F)(F)F)nc(-c2ccc(Cl)cc2)cc1=O)N1CCN(CCO)CC1` [Compound I-0131], with 7.00 to 8.00; and `O=C(Cn1c(COCC(F)(F)F)nc(-c2ccc(Cl)cc2)cc1=O)NCC1(CO)CC1` [Compound I-0211], with 7.00 to 8.00.
With `COC(=O)Nc1cc(Cl)ccc1-c1cc(=O)n(CC(=O)NC2(c3nc(=O)o[nH]3)CC2)c(C)n1` [Compound I-0470] the figure was greater than 8.00; with `CC(O)CNC(=O)Cn1c(CCCC(F)(F)F)nc(-c2ccc(Cl)cc2)cc1=O` (stereo not shown) [Compound I-0119], 7.00 to 8.00; with `O=C(Cn1cnc(-c2ccc(Cl)cc2)cc1=O)NCCCCNC(=O)c1ccc2nn[nH]c2c1` [Compound I-0472], no more than 6.00.
Then `Cc1nc(-c2ccc(Cl)cc2NC(=O)C2CC2)cc(=O)n1CC(=O)NCc1c[nH]nn1` [Compound I-0431], with 7.00 to 8.00; and `CCCCCc1nc(-c2ccc(Cl)cc2)cc(=O)n1Cc1ccc(C(=O)O)cc1` [Compound I-0008], with 6.00 to 7.00; and `Cc1nc(-c2ccc(Cl)cc2NC(=O)C2CC2)cc(=O)n1CC(=O)NC1(C(F)(F)F)CC1` [Compound I-0461], with 7.00 to 8.00.
As to `O=C(Cn1cnc(-c2ccc(Cl)cc2)cc1=O)NCCCCCNC(=O)c1ccc2[nH]nnc2c1` [Compound I-0476], the negative logarithm of the IC50 (pIC50) was no more than 6.00.
Then `O=C(c1cccc(Cn2c(CCCC(F)(F)F)nc(-c3ccc(Cl)cc3)cc2=O)c1)N1CCC2(COC2)C1` [Compound I-0195], with greater than 8.00; and `CCCNc1nc(-c2ccc(Cl)cc2NC(C)=O)cc(=O)n1Cc1ccccc1` [Compound I-0202], with 6.00 to 7.00; and `COC(=O)Nc1cc(C#N)ccc1-c1cc(=O)n(CC(=O)N(C)C(C)(C)C)c(C)n1` [Compound I-0374], with 7.00 to 8.00.
With `O=C(Cn1c(CCCC(F)(F)F)nc(-c2ccc(Cl)cc2)cc1=O)NCC1(CO)COC1` [Compound I-0147] the figure was 7.00 to 8.00; with `Cc1nc(-c2ccc(Cl)cc2NC(=O)C2CC2)cc(=O)n1CC(=O)NCC1CNC(=O)C1` (stereo not shown) [Compound I-0451], 7.00 to 8.00.
Regarding `CCNC(=O)N1CCC(NC(=O)Cn2c(CCCC(F)(F)F)nc(-c3ccc(Cl)cc3)cc2=O)CC1` [Compound I-0128], the pIC50 was 7.00 to 8.00.
Then `CCCCCc1nc(-c2ccc(Cl)cc2)cc(=O)n1CC(=O)NCC(C)(C)C(=O)O` [Compound I-0070], with greater than 8.00; and `O=C(NCC(O)CO)c1cccc(Cn2c(CCCC(F)(F)F)nc(-c3ccc(Cl)cc3)cc2=O)c1` (stereo not shown) [Compound I-0173], with 6.00 to 7.00.
Then `N#CCCCNc1nc(-c2ccc(C#N)cc2)cc(=O)n1Cc1ccccc1` [Compound I-0105], with 6.00 to 7.00.
In the case of `O=C(O)c1cccc(Cn2c(CCCC(F)(F)F)nc(-c3ccc(Cl)cc3)cc2=O)c1` [Compound I-0112], the negative-log IC50 (pIC50) is 7.00 to 8.00.
Then `CCCCCc1nc(-c2ccc(Cl)cc2)cc(=O)n1CC(=O)N1CCOCC1` [Compound I-0084], with 7.00 to 8.00; and `CCCCCc1nc(-c2ccc(Cl)cc2)cc(=O)n1CC(=O)NC(C)CC#N` (stereo not shown) [Compound I-0079], with 7.00 to 8.00.
With `Cc1nc(C2=CCC(C(F)(F)F)CC2)cc(=O)n1CC(=O)NC1(C#N)CC1` (stereo not shown) [Compound I-0261] the figure was 6.00 to 7.00; with `Cc1nc(-c2ccc(Cl)cc2NC(=O)C2CC2)cc(=O)n1CC(=O)N1CC(C)(O)C1` [Compound I-0420], 6.00 to 7.00; with `O=C(Cn1c(CCCC(F)(F)F)nc(-c2ccc(C(F)(F)F)cc2)cc1=O)NCCc1cn[nH]c1` [Compound I-0333], 7.00 to 8.00.
As for `O=C(Cn1c(CCCC(F)(F)F)nc(-c2ccc(C(F)(F)F)cc2)cc1=O)N1CCC(O)C1` (stereo not shown) [Compound I-0319], the pIC50 was 6.00 to 7.00.
Then `Cc1noc(C2(NC(=O)Cn3c(C)nc(-c4ccc(Cl)cc4NC(=O)C4CC4)cc3=O)CC2)n1` [Compound I-0475], with 7.00 to 8.00; and `COC(=O)Nc1cc(Cl)ccc1-c1cc(=O)n(CC(=O)NCc2cc(=O)[nH]o2)c(C)n1` [Compound I-0439], with greater than 8.00; and `O=C(Cn1c(CCCC(F)(F)F)nc(-c2ccc(C(F)(F)F)cc2)cc1=O)NCC(O)CO` (stereo not shown) [Compound I-0323], with 7.00 to 8.00.
Then `O=C(NCc1ccnc(O)c1)c1cccc(Cn2c(CCCC(F)(F)F)nc(-c3ccc(Cl)cc3)cc2=O)c1` [Compound I-0192], with 7.00 to 8.00; and `NS(=O)(=O)CCNC(=O)c1cccc(Cn2c(CCCC(F)(F)F)nc(-c3ccc(Cl)cc3)cc2=O)c1` [Compound I-0186], with 6.00 to 7.00; and `Cc1nc(-c2ccc(Cl)cc2NC(=O)C2CC2)cc(=O)n1CC(=O)NCC(N)=O` [Compound I-0406], with 7.00 to 8.00.
Then `COC(=O)c1cc(Cn2c(CCCC(F)(F)F)nc(-c3ccc(Cl)cc3)cc2=O)cs1` [Compound I-0313], with 6.00 to 7.00; and `COC(=O)Nc1cc(Cl)ccc1-c1cc(=O)n(CC(=O)N2C(C)(C)CC(O)CC2(C)C)c(C)n1` [Compound I-0384], with no more than 6.00; and `CCCCCc1nc(-c2ccc(Cl)cc2)cc(=O)n1CC(=O)NC(CC(=O)O)c1ccccc1` (stereo not shown) [Compound I-0061], with 7.00 to 8.00.
On to `COC(=O)Nc1cc(Cl)ccc1-c1cc(=O)n(CC(=O)NCC2CNC(=O)C2)c(C)n1` (stereo not shown) [Compound I-0438], for which the pIC50 was 7.00 to 8.00.
Then `CCCCCNc1nc(-c2ccc(C(F)(F)F)cc2)cc(=O)n1Cc1ccc(C(=O)NC(Cc2ccccc2)C(=O)O)cc1` (stereo not shown) [Compound I-0017], with 6.00 to 7.00.
Then `COC(=O)Nc1cc(Cl)ccc1-c1cc(=O)n(CC(=O)N2CCCC2(C)C)c(C)n1` [Compound I-0272], with 7.00 to 8.00.
For the molecule `CCCCCc1nc(-c2ccc(Cl)cc2)cc(=O)n1CC(=O)NCCCCCC(=O)O` [Compound I-0043], the pIC50 was 7.00 to 8.00.

For orientation: pIC50 means −log10 of the IC50, conventionally taken in molar units.

These data come from US10183949B2, “Pyrimidinone derivative having autotaxin-inhibitory activity” (The University of Tokyo, priority 2014, dated 2019).
